Results as given in patent US10357479B2, “Angiotensin II receptor antagonist for the prevention or treatment of systemic diseases in cats” (priority 2006, dated 2019).
Several values for one entry are separate records, joined by “and”; a condition that tells them apart may be missing. Identical values can stand only once. Entries after “also recorded” stand apart in the source; their conditions may differ.

Assays:
[1] = system: angiotensin II receptor 1 (AT-1); experiment: Escalating intravenous dose: blood pressure response of anaesthetised cats after angiotensin II (Example 2); type: in vivo
Description: Four clinically healthy adult male and female domestic short hair cats (HsdCpb: CADS) with a body weight range of 2.5-3.5 kg were used in this study. The animals were anaesthetised with sodium pentobarbital and anaesthesia was sustained by continuous infusion of diluted anaesthetic. A catheter was inserted into a carotid artery and connected to a pressure transducer for registration of the arterial pressure. […] The systolic and diastolic blood pressure [mmHg] in the carotid artery were recorded and analysed at discrete intervals as described below.
At first, the diastolic blood pressure was registered 6 times every 5 minutes. The mean of these 6 measurements were set as the baseline blood pressure. Then two bolus injections of A2 were administered at a dose of 0.1 μg/kg in an interval of 10 min. The maximum increase in diastolic blood pressure obtained from the second A2-bolus relative to the baseline blood pressure was taken as the control angiotensin II-blood pressure response (i.e. reference value).
Thirty minutes later the diastolic blood pressure was recorded, immediately followed by bolus injection of A2 at a dose of 0.1 μg/kg and the maximum increase in diastolic blood pressure was obtained. This procedure was to be repeated accordingly until the intended endpoint of the experiment (i.e. an A2-pressure response ≤10% of the control A2-pressure response corresponding to ≥90% inhibition) was reached. […] At the end of the experiment, the anaesthetised animals were euthanized with an overdose of sodium pentobarbital.

[2] = human patients, 160 mg daily; cited from earlier work
[3] = system: angiotensin II receptor 1 (AT-1); experiment: Angiotensin II induced increase in diastolic blood pressure in laboratory cats after oral dosing; type: in vivo; conditions: approximately 24 hours after the last oral dosing, target dose vs Placebo
[4] = Safety after repeated oral administration over four weeks (Example 3); type: in vivo, cats
Description: The animals were allocated to 3 groups, 4 animals per group. […] The bottles with the test/control article looked identical with the exception of the animal no. in order to achieve blinding.
Blood samples for haematology and clinical chemistry were collected from the animals on days-1 (i.e. prior to the first treatment) and again on days 3, 7, 14, 28. Body weights were measured weekly and electrocardiography recording were made on days-1, 14, 21 and 28. A detailed physical examination including determination of rectal temperature and respiratory rate was carried out on days-1, 7, 14, 22 and 28. Systolic blood pressure (once daily) and heart rate (twice daily) were determined five days per week beginning prior to treatment until necropsy. The palatability of the administered article was assessed at various time points throughout treatment using a scoring system. On day 28 of the study, all animals were subjected to necropsy and stomach and kidneys were examined histopathologically. Relevant parameters were analysed using appropriate statistical procedures.

[5] = Pharmacokinetics and absolute bioavailability in plasma after single oral or intravenous administration (Example 1); conditions: for AUC(0-inf) / half-life / t max / V/f or V / t ½ / AUC 0 → ∞: single dose 1 mg/kg, mean; for half-life: t ½
Description: Four clinically healthy male and female domestic short hair cats (HsdCpb: CADS) with a body weight range of 2.6-4.2 kg were used in this study. The animals were randomly allocated to 2 groups, 2 animals per group.
Blood samples were drawn at 0 h (i.e. prior to treatment), 5 (after i. v. injection only), 15, 30 and 60 min as well as 2, 4, 8, 24, 72 and 96 h after each treatment. Clinical observations were also conducted at these time points. Plasma samples were sent to the analytical laboratory and analysed there using a validated method. The plasma levels measured in each animal were subjected to various pharmacokinetic calculations.

[6] = oral once daily days 0 to 27, 1 and 3 mg/kg
[7] = both, domestic short hair (HsdCpb: CADS), plasma, po, 1 mg/kg

CCCc1nc2c(C)cc(-c3nc4ccccc4n3C)cc2n1Cc1ccc(-c2ccccc2C(=O)O)cc1 [telmisartan, 4′-[2-n-propyl-4-methyl-6-(1-methylbenzimidazol-2-yl)-benzimidazol-1-ylmethyl]-biphenyl-2-carboxylic acid]
effect of further dose escalation ([1]; all 4 animals): did not produce markedly higher effects; also recorded: did not produce an appropriate dose response relationship
maximal inhibition of the blood pressure increase relative to the control angiotensin II-blood pressure response ([1]; animal no. 101, reached at cumulative i.v. dose of 0.05 mg/kg): 50%
inhibition of the angiotensin II diastolic blood pressure response ([1]; animal no. 102, after the 1st i.v. dose of 0.04 mg/kg): 73%
inhibition of the angiotensin II diastolic blood pressure response ([1]; animal no. 151, cumulative i.v. dose of 0.04 mg/kg): 73%
inhibition of the angiotensin II diastolic blood pressure response ([1]; animal no. 152, after the 1st i.v. dose of 0.02 mg/kg): 73%
maximal inhibition of the blood pressure increase relative to the control angiotensin II-blood pressure response ([1]; animal nos. 102, 151, 152, final cumulative i.v. dose 0.34-0.4 mg/kg): 80-95%
inhibition of the angiotensin II diastolic blood pressure response ([1]; cumulative i.v. dose of 0.04 mg/kg, 3 of 4 animals): 73%
inhibition of the blood pressure response ([1]; doses of less than 0.05 mg per kg body weight, majority of the tested cats): about 75%
effect on diastolic blood pressure increase after angiotensin II ([1]; escalating intravenous doses, anaesthetised cats): led to an inhibition of the diastolic blood pressure increase
endpoint of a 90% inhibition of the A2-pressure response ([1]; several consecutive escalating i.v. doses): could not be reached in 3 of 4 animals
plasma level (Cmax±SD) [2]: about 2800±2400 ng/ml
diastolic blood pressure responses to increasing intravenous doses of Angiotensin II [3]: significantly reduced
histopathology of stomach and kidneys ([4]; day 28): no histopathological findings considered to be associated with the treatment
necropsy findings ([4]; day 28): No animal showed any specific finding
systolic blood pressure, changes from baseline vs controls ([4]; groups II (1 mg/kg) and III (3 mg/kg)): did not reveal significant differences
systolic blood pressure vs control group I ([4]; groups II (1 mg/kg) and III (3 mg/kg), single occasions after initiation of treatment): significantly lower
systolic blood pressure, course of the mean values over time ([4]; groups II and III vs group I, from day 20 onwards / towards the end of the study): tendency of a slight reduction
body weights, rectal temperature, respiratory and heart rates [4, 6]: No significant differences
clinical findings [4, 6]: No clinical findings clearly attributable to the treatment
urinalysis [4, 6]: not provide evidence of a treatment effect
physical and ECG examinations ([4]; oral once daily days 0 to 27, 1 and 3 mg/kg, all time points): did not reveal treatment-related findings
haematological and clinical chemistry parameters including differential leukocyte count ([4]; oral once daily days 0 to 27, 1 and 3 mg/kg, vs concurrent controls): No treatment-related differences
plasma concentrations at 24 h ([5]; 24 h after both routes, orally and intravenously): No quantifiable plasma concentrations
time until which mean plasma concentrations increased ([5]; after oral administration): 15 to 30 min
bioavailability ([5]; both, domestic short hair (HsdCpb: CADS), cat, plasma, po, 1 mg/kg, absolute bioavailability after oral administration, oral 1 mg/kg): 33%
MRT ([5]; both, domestic short hair (HsdCpb: CADS), plasma, iv, 1 mg/kg): 0.789 h
AUC(0-inf) ([5]; both, domestic short hair (HsdCpb: CADS), plasma, iv, 1 mg/kg, i.v., first AUC line (r5)): 385 ng·h/mL
AUC(0-inf) ([5]; both, domestic short hair (HsdCpb: CADS), plasma, iv, 1 mg/kg, i.v., second AUC line (r7)): 376 ng·h/mL
half-life ([5]; both, domestic short hair (HsdCpb: CADS), plasma, iv, 1 mg/kg, i.v.): 2.25 h
CL/F [5, 7]: 172 mL/min/kg
Cmax [5, 7]: 138 ng/mL
MRT [5, 7]: 1.97 h
AUC(0-inf) ([5]; both, domestic short hair (HsdCpb: CADS), plasma, po, 1 mg/kg, oral, first AUC line (r5)): 150 ng·h/mL
AUC(0-inf) ([5]; both, domestic short hair (HsdCpb: CADS), plasma, po, 1 mg/kg, oral, second AUC line (r7)): 139 ng·h/mL
bioavailability ([5]; both, domestic short hair (HsdCpb: CADS), plasma, po, 1 mg/kg, absolute bioavailability after oral administration, oral 1 mg/kg): 33.6%
bioavailability ([5]; both, domestic short hair (HsdCpb: CADS), plasma, po, 1 mg/kg, absolute bioavailability, point estimate, for AUC 0→t, oral vs i.v. 1 mg/kg): 31.6%
bioavailability ([5]; both, domestic short hair (HsdCpb: CADS), plasma, po, 1 mg/kg, absolute bioavailability, point estimate, for AUC 0→∞, oral vs i.v. 1 mg/kg): 33.6%
t max ([5]; both, domestic short hair (HsdCpb: CADS), plasma, po, 1 mg/kg, t max, oral): 0.44 h
half-life ([5]; both, domestic short hair (HsdCpb: CADS), plasma, po, 1 mg/kg, oral): 2.17 h
bioavailability ([5]; domestic short hair (HsdCpb: CADS), plasma, po, 1 mg/kg, bioavailability, individual data, animal no. 101, for AUC 0→∞): 11.6%
bioavailability ([5]; domestic short hair (HsdCpb: CADS), plasma, po, 1 mg/kg, bioavailability, individual data, the other animals, for AUC 0→∞): 38.7 to 58.2%
clinical signs ([5]; entire course of the study, single oral or i.v. 1 mg/kg): No specific clinical signs
V/f or V ([5]; i.v., 1 mg/kg): 8.8 L/kg and 8.856 L/kg
t ½ ([5]; i.v., 1 mg/kg): 2.252 h
AUC 0 → ∞ ([5]; i.v., first AUC line (r5), 1 mg/kg): 384.751 ng·h/mL
tolerability ([5]; in vivo, 1 mg/kg): well tolerated
V/f or V ([5]; oral, 1 mg/kg): 20.4 L/kg and 20.453 L/kg
t max ([5]; oral, 1 mg/kg): 0.438 h
t ½ ([5]; oral, 1 mg/kg): 2.169 h
AUC 0 → ∞ ([5]; oral, first AUC line (r5), 1 mg/kg): 150.426 ng·h/mL
